Laboratory results taken from ChEMBL document CHEMBL4038272, “Synthesis and biological evaluation of novel podophyllotoxin-NSAIDs conjugates as multifunctional anti-MDR agents against resistant human hepatocellular carcinoma Bel-7402/5-FU cells” (Eur J Med Chem, 2017).
Active and inactive are the calls of the source. The calls are words filed in the database; no cut-off is given here.

Key:
[1] = system: Bel-7402; assay: Antiproliferative activity against human Bel7402 cells after 72 hrs by CCK-8 assay; assay type: functional, cell-based; settings: Bel-7402, 72 h
[2] = system: Bel7402/5-FU; assay: Antiproliferative activity against human Bel7402/5-FU cells after 72 hrs by CCK-8 assay; assay type: functional, cell-based
[3] = system: L02; assay: Antiproliferative activity against human LO2 cells after 72 hrs by CCK-8 assay; assay type: cell-based; settings: L02, 72 h
[4] = Resistant factor, ratio of IC50 for human Bel7402/5-FU cells to IC50 for human Bel7402 cells; assay type: functional
[5] = system: Bel7402/5-FU; assay: Cell cycle arrest in human Bel7402/5-FU cells assessed as accumulation at G1 phase at 0.05 uM after 48 hrs by propidium iodide staining based flow cytometry (reference value: 52.21%); assay type: functional
[6] = system: Bel7402/5-FU; assay: Cell cycle arrest in human Bel7402/5-FU cells assessed as accumulation at S phase at 0.05 uM after 48 hrs by propidium iodide staining based flow cytometry (reference value: 12.62%); assay type: functional
[7] = system: Bel7402/5-FU; assay: Cell cycle arrest in human Bel7402/5-FU cells assessed as accumulation at G2 phase at 0.05 uM after 48 hrs by propidium iodide staining based flow cytometry (reference value: 35.16%); assay type: functional
[8] = system: Bel7402/5-FU; assay: Induction of apoptosis in human Bel7402/5-FU cells assessed as reduction in cell number at 0.05 uM after 24 hrs by Hoechst 33342 staining based fluorescent microscopic method; assay type: functional
[9] = system: Bel7402/5-FU; assay: Induction of apoptosis in human Bel7402/5-FU cells assessed as morphological changes at 0.05 uM after 24 hrs by Hoechst 33342 staining based fluorescent microscopic method; assay type: functional, cell-based
[10] = system: Bel7402/5-FU; assay: Induction of apoptosis in human Bel7402/5-FU cells assessed as condensed nuclei at 0.05 uM after 24 hrs by Hoechst 33342 staining based fluorescent microscopic method; assay type: functional, cell-based
[11] = system: Bel7402/5-FU; assay: Induction of apoptosis in human Bel7402/5-FU cells at 0.05 uM after 24 hrs by Hoechst 33342 staining based fluorescent microscopic method; assay type: functional, cell-based
[12] = system: Bel7402/5-FU; assay: Induction of apoptosis in human Bel7402/5-FU cells assessed as live cells at 0.05 uM after 48 hrs by Annexin V-APC/7-AAD staining based flow cytometry (reference value: 91.08%); assay type: functional
[13] = system: Bel7402/5-FU; assay: Induction of apoptosis in human Bel7402/5-FU cells assessed as early apoptotic cells at 0.05 uM after 48 hrs by Annexin V-APC/7-AAD staining based flow cytometry (reference value: 5.24%); assay type: functional
[14] = system: Bel7402/5-FU; assay: Induction of apoptosis in human Bel7402/5-FU cells assessed as late apoptotic cells at 0.05 uM after 48 hrs by Annexin V-APC/7-AAD staining based flow cytometry (reference value: 3%); assay type: functional
[15] = system: Bel7402/5-FU; assay: Induction of apoptosis in human Bel7402/5-FU cells assessed as necrotic cells at 0.05 uM after 48 hrs by Annexin V-APC/7-AAD staining based flow cytometry (reference value: 0.58%); assay type: functional
[16] = system: Bel7402/5-FU; assay: Induction of microtubule disruption in human Bel7402/5-FU cells at 0.05 uM after 24 to 48 hrs by DAPI staining based immunofluorescence microscopic method; assay type: functional, cell-based
[17] = system: Bel7402/5-FU; assay: Reduction in microtubule density in human Bel7402/5-FU cells at 0.05 uM after 24 to 48 hrs by DAPI staining based immunofluorescence microscopic method; assay type: functional, cell-based
[18] = system: Bel7402/5-FU; assay: Antimigratory activity in human Bel7402/5-FU cells at 0.05 uM after 24 hrs by wound healing assay; assay type: functional, cell-based
[19] = system: Bel7402/5-FU; assay: Effect on CDK1 expression in human Bel7402/5-FU cells assessed as ratio of CDK1 to beta-actin level at 0.05 uM after 48 hrs by Western blot analysis (reference value: 0.33); assay type: functional
[20] = system: Bel7402/5-FU; assay: Effect on CDK2 expression in human Bel7402/5-FU cells assessed as ratio of CDK2 to beta-actin level at 0.05 uM after 48 hrs by Western blot analysis (reference value: 0.43); assay type: functional
[21] = system: Bel7402/5-FU; assay: Effect on cyclinA expression in human Bel7402/5-FU cells assessed as ratio of cyclinA to beta-actin level at 0.05 uM after 48 hrs by Western blot analysis (reference value: 0.39); assay type: functional
[22] = system: Bel7402/5-FU; assay: Effect on cyclinB1 expression in human Bel7402/5-FU cells assessed as ratio of cyclinB1 to beta-actin level at 0.05 uM after 48 hrs by Western blot analysis (reference value: 0.53); assay type: functional
[23] = system: Bel7402/5-FU; assay: Induction of apoptosis in human Bel7402/5-FU cells assessed as ratio of cleaved caspase-3 to beta-actin level at 0.05 uM after 48 hrs by Western blot analysis (reference value: 0.19); assay type: functional
[24] = system: Bel7402/5-FU; assay: Induction of apoptosis in human Bel7402/5-FU cells assessed as ratio of cleaved caspase-8 to beta-actin level at 0.05 uM after 48 hrs by Western blot analysis (reference value: 0.17); assay type: functional
[25] = system: Bel7402/5-FU; assay: Induction of apoptosis in human Bel7402/5-FU cells assessed as ratio of cleaved caspase-9 to beta-actin level at 0.05 uM after 48 hrs by Western blot analysis (reference value: 0.17); assay type: functional
[26] = system: Bel7402/5-FU; assay: Induction of apoptosis in human Bel7402/5-FU cells assessed as ratio of cleaved PARP to beta-actin level at 0.05 uM after 48 hrs by Western blot analysis (reference value: 0.2); assay type: functional
[27] = system: Bel7402/5-FU; assay: Effect on VEGFR2 expression in human Bel7402/5-FU cells assessed as ratio of VEGFR2 to beta-actin level at 0.05 uM after 48 hrs by Western blot analysis (reference value: 0.25); assay type: functional
[28] = system: Bel7402/5-FU; assay: Effect on MMP2 expression in human Bel7402/5-FU cells assessed as ratio of MMP2 to beta-actin level at 0.05 uM after 48 hrs by Western blot analysis (reference value: 0.3); assay type: functional
[29] = system: Bel7402/5-FU; assay: Effect on E-cadherin expression in human Bel7402/5-FU cells assessed as ratio of E-cadherin to beta-actin level at 0.05 uM after 48 hrs by Western blot analysis (reference value: 0.2); assay type: functional
[30] = system: Bel7402/5-FU; assay: Effect on COX1 expression in human Bel7402/5-FU cells assessed as ratio of COX1 to beta-actin level at 0.05 uM after 48 hrs by Western blot analysis (reference value: 0.48); assay type: functional
[31] = system: Bel7402/5-FU; assay: Effect on COX2 expression in human Bel7402/5-FU cells assessed as ratio of COX2 to beta-actin level at 0.05 uM after 48 hrs by Western blot analysis (reference value: 0.36); assay type: functional
[32] = system: Bel7402/5-FU; assay: Effect on iNOS expression in human Bel7402/5-FU cells assessed as ratio of iNOS to beta-actin level at 0.05 uM after 48 hrs by Western blot analysis (reference value: 0.13); assay type: functional
[33] = system: Bel7402/5-FU; assay: Effect on P-gp expression in human Bel7402/5-FU cells assessed as ratio of P-gp to beta-actin level at 0.05 uM after 48 hrs by Western blot analysis (reference value: 0.59); assay type: functional
[34] = system: Bel7402/5-FU; assay: Effect on MRP1 expression in human Bel7402/5-FU cells assessed as ratio of MRP1 to beta-actin level at 0.05 uM after 48 hrs by Western blot analysis (reference value: 0.58); assay type: functional
[35] = molecular target: Mitogen-activated protein kinase; ERK1/ERK2 (Homo sapiens) (UniProt P27361+P28482); assay: Effect on ERK1/2 phosphorylation in human Bel7402/5-FU cells assessed as ratio of phosphorylated ERK1/2 to beta-actin level at 0.05 uM after 48 hrs by Western blot analysis (reference value: 0.59); assay type: cell-based
[36] = molecular target: Signal transducer and activator of transcription 3 (Homo sapiens) (UniProt P40763); assay: Effect on STAT3 phosphorylation in human Bel7402/5-FU cells assessed as ratio of phosphorylated STAT3 to beta-actin level at 0.05 uM after 48 hrs by Western blot analysis (reference value: 0.3); assay type: cell-based
[37] = molecular target: RAC-alpha serine/threonine-protein kinase (Homo sapiens) (UniProt P31749); assay: Effect on AKT phosphorylation in human Bel7402/5-FU cells assessed as ratio of phosphorylated AKT to beta-actin level at 0.05 uM after 48 hrs by Western blot analysis (reference value: 0.39); assay type: cell-based
Chain of RAC-alpha serine/threonine-protein kinase (Homo sapiens) (P31749 whole entry): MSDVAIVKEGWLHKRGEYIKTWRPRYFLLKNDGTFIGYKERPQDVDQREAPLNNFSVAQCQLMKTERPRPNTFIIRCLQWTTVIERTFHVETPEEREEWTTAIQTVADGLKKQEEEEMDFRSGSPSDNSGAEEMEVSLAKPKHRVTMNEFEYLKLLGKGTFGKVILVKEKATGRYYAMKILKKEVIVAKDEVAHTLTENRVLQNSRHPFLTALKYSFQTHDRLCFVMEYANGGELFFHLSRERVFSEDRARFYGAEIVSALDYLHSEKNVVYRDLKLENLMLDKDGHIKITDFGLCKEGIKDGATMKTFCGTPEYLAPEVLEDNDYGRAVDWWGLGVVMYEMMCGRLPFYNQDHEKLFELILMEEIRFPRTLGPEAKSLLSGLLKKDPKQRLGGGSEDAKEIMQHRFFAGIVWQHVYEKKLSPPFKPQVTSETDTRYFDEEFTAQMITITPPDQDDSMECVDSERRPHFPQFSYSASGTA

Chain of Mitogen-activated protein kinase; ERK1/ERK2 (Homo sapiens) (P27361 whole entry, looked up): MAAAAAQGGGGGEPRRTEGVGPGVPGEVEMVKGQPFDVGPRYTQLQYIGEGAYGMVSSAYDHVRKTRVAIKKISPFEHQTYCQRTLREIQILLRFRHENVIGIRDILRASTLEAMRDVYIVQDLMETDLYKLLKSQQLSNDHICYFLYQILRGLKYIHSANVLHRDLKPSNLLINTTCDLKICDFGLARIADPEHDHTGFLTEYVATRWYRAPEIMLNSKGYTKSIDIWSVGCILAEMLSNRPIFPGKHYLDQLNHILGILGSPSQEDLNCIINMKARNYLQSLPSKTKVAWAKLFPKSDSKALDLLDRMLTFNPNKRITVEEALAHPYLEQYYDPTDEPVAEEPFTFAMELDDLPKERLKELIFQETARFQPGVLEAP
Chain of Mitogen-activated protein kinase; ERK1/ERK2 (Homo sapiens) (P28482 whole entry, looked up): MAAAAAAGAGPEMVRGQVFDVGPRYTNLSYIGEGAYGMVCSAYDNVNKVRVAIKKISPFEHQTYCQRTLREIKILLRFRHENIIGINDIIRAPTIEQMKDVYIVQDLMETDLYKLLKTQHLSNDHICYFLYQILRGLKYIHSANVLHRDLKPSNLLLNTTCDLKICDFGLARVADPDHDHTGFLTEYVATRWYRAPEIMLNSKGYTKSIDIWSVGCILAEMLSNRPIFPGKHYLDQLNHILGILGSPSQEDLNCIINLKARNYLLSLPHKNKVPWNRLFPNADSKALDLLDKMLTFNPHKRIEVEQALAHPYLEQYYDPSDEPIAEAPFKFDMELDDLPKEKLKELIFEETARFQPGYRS
Chain of Signal transducer and activator of transcription 3 (Homo sapiens) (P40763 whole entry): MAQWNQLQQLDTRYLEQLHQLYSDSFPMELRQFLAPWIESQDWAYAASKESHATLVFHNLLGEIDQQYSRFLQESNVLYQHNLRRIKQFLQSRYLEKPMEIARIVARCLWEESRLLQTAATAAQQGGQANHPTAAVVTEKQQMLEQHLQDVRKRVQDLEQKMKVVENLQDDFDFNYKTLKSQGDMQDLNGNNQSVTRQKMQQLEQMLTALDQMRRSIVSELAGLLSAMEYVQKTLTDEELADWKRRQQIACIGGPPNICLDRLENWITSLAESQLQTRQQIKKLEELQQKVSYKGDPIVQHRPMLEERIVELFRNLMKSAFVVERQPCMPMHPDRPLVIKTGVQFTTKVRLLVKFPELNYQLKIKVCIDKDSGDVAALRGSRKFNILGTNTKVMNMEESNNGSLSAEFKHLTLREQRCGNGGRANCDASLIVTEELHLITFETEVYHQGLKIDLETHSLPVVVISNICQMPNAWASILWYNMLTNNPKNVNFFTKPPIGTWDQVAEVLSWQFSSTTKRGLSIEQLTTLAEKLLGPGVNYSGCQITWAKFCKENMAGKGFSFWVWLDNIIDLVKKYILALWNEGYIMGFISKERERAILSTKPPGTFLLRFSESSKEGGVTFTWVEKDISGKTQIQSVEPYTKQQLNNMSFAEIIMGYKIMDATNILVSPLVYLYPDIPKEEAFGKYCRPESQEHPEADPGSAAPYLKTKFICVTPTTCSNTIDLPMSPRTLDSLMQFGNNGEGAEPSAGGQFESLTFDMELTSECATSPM

Compound: COc1cc([C@@H]2c3cc4c(cc3[C@H](O)[C@H]3COC(=O)[C@H]23)OCO4)cc(OC)c1OC [PODOFILOX]
- IC50 [1]: 52 nM
- IC50 [2]: 44 nM
- IC50 [3]: 22 nM
- Ratio IC50 [4]: 0.84
- Activity [5]: 17.28%
- Activity [6]: 9.1%
- Activity [7]: 73.62%
- Activity [8]: Active
- Activity [9]: Active
- Activity [10]: Active
- Activity [11]: Active
- Activity [12]: 63.7%
- Activity [13]: 8.48%
- Activity [14]: 23.17%
- Activity [15]: 4.65%
- Activity [16]: Active
- Activity [17]: Active
- Activity [18]: Active
- Ratio [19]: 0.33
- Ratio [20]: 0.29
- Ratio [21]: 0.27
- Ratio [22]: 0.41
- Ratio [23]: 0.27
- Ratio [24]: 0.26
- Ratio [25]: 0.26
- Ratio [26]: 0.38
- Ratio [27]: 0.22
- Ratio [28]: 0.13
- Ratio [29]: 0.28
- Ratio [30]: 0.43
- Ratio [31]: 0.39
- Ratio [32]: 0.18
- Ratio [33]: 0.49
- Ratio [34]: 0.52
- Ratio [35]: 0.38
- Ratio [36]: 0.41
- Ratio [37]: 0.35
